Test results reported in patent publication US20100068150A1, “Selective Caspase Inhibitors” (The Board of Trustees of the Leland Stanford Junior …, priority 2006, published 2010).

Tested on: endogenous caspases in 293 cytosolic extracts
Test: Direct labeling of endogenous caspases in apoptotic 293 cytosolic extracts
Assay type: binding
Details: 10 min after cytochrome c/dATP; bAB06 and bAB13 at 10 nM to 10 μM
Method: (a.) Hypotonic 293 cytosolic extracts were induced to undergo intrinsic apoptosis by addition of cytochrome c/dATP. KMB01, bAB06 and bAB13 were added 10 minutes after activation and labeling of caspase active sites was carried out for three minutes. Samples were analyzed by SDS-PAGE followed by biotin blotting using streptavidin-HRP. (b) The identity of individual caspases was confirmed via immunoprecipitation using specific anti-sera for caspases-3, 7 and 9 (also see FIG. 5B for immunoprecipitation of caspases-3 and 7 after KMB01 labeling). Extracts (293) were activated with cytochrome c/dATP for 10 minutes, labeled by addition of indicated probes (100 nM final concentration for bAB06 and bAB13 and 10 μM final concentration for KMB01) and labeled caspases precipitated using specific anti-sera as described in the Methods section. […] Labeling of caspases was monitored by SDS-PAGE followed by biotin blotting with streptavidin-HRP. […]
Selective labeling of endogenous caspases in cell extracts and live cells with active site probes was carried out as follows: Hypotonic 293 cytosolic extracts were induced to undergo intrinsic apoptosis by addition of cytochrome c/dATP. […] Samples were analyzed by SDS-PAGE followed by biotin blotting using streptavidin-HRP. […] Labeling of caspases was monitored by SDS-PAGE followed by biotin blotting with streptavidin-HRP. […]

For “Bio-EVD-AOMK [KMB01, reference compound]”, the “labeling of endogenous caspases in activated 293 extracts” value was “labeled a 35 kDa caspase-9 species and the two primary mature forms of caspase3 at 17 and 20 kDa as well the 33 kDa full length N-peptide processed and 20 kDa mature forms of caspase-7”.
